What was measured:
Caco-2 cells = assay: Immunostaining of junctional proteins and F-actin; type: cell-based, human; details: 1 h
Protocol: Morphological changes in interepithelial junctions after treatment with different concentrations of CPPs (100 μM) and PN159 peptide (1, 3, 10, 30 and 100 μM) were followed by immunostaining for claudin-1 integral membrane tight junction protein, β-catenin and zonula occludens protein-1 (ZO-1) cytoplasmic linker proteins. F-actin was stained by fluorescently labeled phalloidin. Treatments lasted for 1 h. After peptide treatment cell layers were washed with PBS and fixed with a 1:1 mixture of ice cold acetone and methanol for 2 min. Cells were blocked with 3% bovine serum albumin in PBS and incubated with primary antibodies mouse anti-claudin-1 and -4, rabbit anti-ZO-1 and rabbit anti-β-catenin (Life Technologies, Carlsbad, CA, USA) overnight. Fluorescent Atto 647N-phalloidin (ATTO-TEC GmbH, Germany) lasted for 1 h. Incubation with Alexa Fluor-488-labeled anti-mouse and anti-rabbit secondary antibodies (Life Technologies, Invitrogen, USA) lasted for 1 h. Bis-benzimide dye (Hoechst 33342) was used to stain cell nuclei. After mounting (Fluoromount-G; Southern Biotech, Birmingham, AL, USA) the samples staining was visualized by a Leica TCS SP5 confocal laser scanning microscope (Leica Microsystems GmbH, Wetzlar, Germany) and Visitron spinning disk confocal system (Visitron Systems GmbH, Puchheim, Germany).

[1] = Circular dichroism spectroscopy of the peptide; type: physicochemical; details: CD
Protocol: Far-UV circular dichroism (CD) spectra of the peptides were recorded at 25°C temperature on a J-810 spectropolarimeter (JASCO International Co. Ltd., Tokyo, Japan). The CD spectra were measured between 260 nm and 185 nm with an optical pathlength of 1 mm, at a peptide concentration of 0.1 mg/mL in Milli-Q water diluted directly from powder. The bandwidth was 2 nm and data pitch 0.5 nm, the scan speed was set to 100 nm/min and the integration time was 1 sec. Ten spectra were accumulated and plotted. The data were analyzed by CDSSTR method. To test the thermostability of the peptide structure the CD spectra were recorded between 25 °C and 55 °C temperature with a ramp rate of 5 °C/min on a JASCO J-810 spectropolarimeter by using a Peltier sample holder. The CD spectra were measured immediately between 260 and 185 nm with an optical pathlength of 1 mm, the peptide concentration was 0.1 mg/mL in Milli-Q water. The bandwidth was 2 nm and data pitch 1 nm, the scan speed was set to 100 nm/min, and the integration time was 1 sec. Five spectra were accumulated and plotted.

Structure (SMILES): CC(C)C[C@H](NC(=O)[C@H](C)NC(=O)[C@H](CCCCN)NC(=O)[C@H](CC(C)C)NC(=O)[C@H](C)NC(=O)[C@H](CC(C)C)NC(=O)[C@H](CCCCN)NC(=O)[C@H](CC(C)C)NC(=O)[C@H](C)NC(=O)[C@H](CC(C)C)NC(=O)[C@@H](N)CCCCN)C(=O)N[C@@H](CCCCN)C(=O)N[C@@H](C)C(=O)N[C@@H](C)C(=O)N[C@@H](CC(C)C)C(=O)N[C@@H](CCCCN)C(=O)N[C@@H](CC(C)C)C(=O)N[C@@H](C)C(N)=O [PN159]
- Junctional and cell morphology (claudin-1, ZO-1, β-catenin, F-actin) (Caco-2 cells; PN159 1 μM): slight effect on cell morphology
- Junctional and cell morphology (claudin-1, ZO-1, β-catenin, F-actin) (Caco-2 cells; PN159 10 μM): drastic change in actin cytoskeleton and epithelial junctional morphology
- Secondary structure, turns ([1]; 25 °C, 0.1 mg/mL in water): 24%
- Secondary structure, unordered structure ([1]; 25 °C, 0.1 mg/mL in water): 34%
- Secondary structure, α-helix ([1]; 25 °C, 0.1 mg/mL in water): 11%
- Secondary structure, β-sheet ([1]; 25 °C, 0.1 mg/mL in water): 31%
- Thermostability of secondary structure ([1]; between 25 and 55 °C): stable

— publication PMC6410202, “Dual Action of the PN159/KLAL/MAP Peptide: Increase of Drug Penetration across Caco-2 Intestinal Barrier Model by Modulation of Tight Junctions and Plasma Membrane Permeability” (Pharmaceutics, 2019)
